The results in this text go back to US10344035B2, “Salt of quinolone compound, polymorphs thereof, preparation method therefor, composition, and applications” (SHANGHAI PHARMACEUTICALS HOLDING CO., LTD., priority 2015, dated 2019).

A short description of data set [1]: Body weight change of tumor-bearing mice in LU2503 model. Format: in vivo, BALB/c nude mice. To be noted: QD*21, 21th day. The source says:
Tumor tissue was harvested from HuPrime® lung tumor xenograft model LU2503 (R11P6) tumor-bearing mice and cut into 2 to 3 mm diameter tumor blocks subcutaneously inoculated at the right anterior scapular of BALB/c nude mice. When the mean tumor volume reached approximately 139 mm^3, mice were randomly divided to […] based on tumor volume, 8 mice in each group, 4 mice per cage. The day of grouping was defined as day 0. Dosing started on day 0 and ended on day 20. The experiment ended on the 21st day. The experiment was divided into groups of crystal form A of SPH1772 ditartrate (0.3 mg/kg, 3 mg/kg and 30 mg/kg), positive control INC280 (30 mg/kg), positive control Crizotinib (30 mg/kg) and vehicle group, 8 mice in each group, intragastric administration once a day, lasting 21 days.

A further data set is described as follows: in vivo. To be noted: SD, rat, in vivo, po, 20 umol/kg. As for the experimental part: All stock solutions of the test compound were sonicated and heated to become clarified and formulated to a 25 mM solution with DMSO.
All samples were dosed at 20 μmol/kg.
The blood sample was centrifuged at 8000 rpm for 5 min, the plasma was collected in a centrifuge tube and stored at −20° C. for use.
Treatment of the plasma sample: the proteins in 50 μL plasma sample were precipitated with 200 μL acetonitrile containing internal standard (Propranolol (PRO), 2.5 ng/mL). Vortexed for 10 min, centrifuged at 6000 g for 10 min, the supernatant was taken and 5-fold diluted with the mobile phase, and the supernatant was injected into a 96-well plate for analysis.
flow rate: 0.3 mL/min; injection volume: 2 μL; column temperature 45° C. The gradient elution procedure was: […]
The ion source was an electrospray ionization source (Turbo Ionspray, ESI); the electrospray voltage was 5500V; the temperature was 500° C.; pressure of ion source gas 1 (N2) was 50 psi; pressure of ion source gas 2 (N2) was 50 psi; pressure of curtain gas (N2) 20 psi; pressure of collision gas (CAD) was Medium; scan time was 100 ms; positive ion mode detection; scan mode was multiple reaction monitoring (MRM), ion reaction and collision energy (CE) for quantitative analysis, declustering potential (DP) are shown in the following table: […]

The subject of data set [2] is H1993 human lung cancer cell. Kind of data set: Inhibition of proliferation of human lung cancer H1993 cells (CCK-8). The class given is cell-based. As to conditions: Homo sapiens, NCI-H1993, 72 h, CCK-8, 72 hours incubation; read-out: IC50, proliferation of H1993 cell line. As for the experimental part: CCK-8 is a kit for detecting cell proliferation, cell survival and cytotoxicity and an alternative method for the MTT method.
All samples were formulated to a 10^−2 M stock solution with DMSO and stored in small quantities at −80° C. for use.
1, Cell culture and inoculation: on the first day of the experiment, took normal cultured cells, when cells were in the exponential growth phase, the cells were dispersed by digesting and then inoculated in a 96-well cell culture plate at a density of 5.5×10^4 cells/mL (representing 55000 cells per mL), 90 μL per well; after completion of inoculation, the microplate was placed at 37° C. under 5% CO2 condition overnight.
According to different cell lines, the starting concentration of each compound was different.
3, Data acquisition: the compound and cells were incubated for 72 hours, the microplate containing the cells was taken out from incubator, 10 μL Cell Counting Kit-8 reaction solution was added to each well, and the microplate was placed in an incubator for 2-3 hours. The absorbance values were measured at 450 nm on the Flexstation 3 and set 650 nm as the reference wavelength.

With `Cn1cc(-c2cnc3ccc(Cn4nnc5ncc(-c6cnn(C)c6)nc54)cc3c2)cn1` [crystal form A of SPH1772 ditartrate], the “weight change percentage of tumor-bearing mice” value (“weight change percentage” for short) in data set [1] (0.3 mg/kg) was −1.61%. Further, the “weight change percentage” value in data set [1] (3 mg/kg) is −1.88%. The “weight change percentage” value in data set [1] (30 mg/kg) is on record as −2.01%. In the data set “in vivo”, the AUCextra stood at 210.83 µM·min, the AUCtot was determined as 9012.96 µM·min, the Clearance is 2 mL/min/kg and the Vz is 0.760 L/kg. In addition, in the data set “in vivo” (Cmax), the Cmax turned out to be 16 µM. This compound also showed a mean residence time MRT in “in vivo” (MRT) of 7.89 h. Further, the Tmax in the data set “in vivo” (Tmax) was 3.33 h. Also, the IC50 in data set [2] stood at 0.7 nM.

One may read the Cmax as the highest concentration seen after dosing. The MRT is the average time that molecules of a dose stay in the body. What is called Tmax is the time from dosing to the highest level.
